Experimental data: patent US20250163119A1, “COMPOUNDS FOR THE TREATMENT OF DIABETES OR OBESITY” (Eli Lilly and Company, priority 2023, published 2025)
Where “and” joins values, the source holds several entries; their conditions need not be identical. Identical values can stand only once. Like-named read-outs stand apart in the source and are kept apart here. *1 amine or outer side, *2 acyl side, *3 side chain or, on linkers, in order; H or OH if unused. [ ]: non-standard residue; d: D form. The star is where a group is joined. C20 diacid = O=C(O)CCCCCCCCCCCCCCCCCCC(=O)*; γGlu = O=C(O)[C@H](CCC(=O)[*:2])N[*:1]; εLys = N[C@@H](CCCCN[*:1])C(=O)[*:2]; αMeL = CC(C)C[C@](C)(N)C(=O)O; AEEA = NCCOCCOCC(=O)O; Aib = CC(C)(N)C(=O)O

Legend:
human CRHR1 = target: T1, human CRHR1 (Homo sapiens, UniProt P34998); assay: Human CRHR1 cAMP assay (HTRF) in HEK293 cells stably expressing human CRHR1; format: cell-based; settings: HEK293 cells overexpressing human CRHR1; relative EC50, maximum 66 nM human UCN1; mean ± SE; read-out: hCRHR1 cAMP EC50 (pM, ± SE)
T1 construct: expressed in transfected cells
T1 sequence (P34998 24-415): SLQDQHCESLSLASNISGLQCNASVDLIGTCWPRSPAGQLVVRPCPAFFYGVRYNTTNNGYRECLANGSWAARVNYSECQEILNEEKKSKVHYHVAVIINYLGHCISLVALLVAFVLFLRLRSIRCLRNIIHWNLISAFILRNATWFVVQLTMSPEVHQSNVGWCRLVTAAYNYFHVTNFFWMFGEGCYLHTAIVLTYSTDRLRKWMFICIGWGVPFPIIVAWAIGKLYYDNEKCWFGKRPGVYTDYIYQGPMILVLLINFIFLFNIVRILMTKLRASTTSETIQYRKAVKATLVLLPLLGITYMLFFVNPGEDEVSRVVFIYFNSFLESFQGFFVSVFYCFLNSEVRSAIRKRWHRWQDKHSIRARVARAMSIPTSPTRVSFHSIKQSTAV
Procedure, shortened: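 HEK293 cells stably expressing human CRHR1 (25,000/well) or CRHR2b (5,000/well) were treated with peptides in MEM with 0.1% casein, 5 mM HEPES pH 7.4 and 0.25 mM IBMX. Incubation was 1 h at 37 °C for CRHR1 and 30 min at room temperature for CRHR2. cAMP was measured by HTRF (665/620 nm) against a per-experiment cAMP standard curve.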

[1] = Pharmacokinetics in Sprague Dawley rats, single subcutaneous or intravenous dose (incl. 10, 30, 100 nmol/kg dose response); format: in vivo
[2] = dose response, single subcutaneous dose 10 nmol/kg, male Sprague Dawley rats, individual animal
[3] = dose response, single subcutaneous dose 30 nmol/kg, male Sprague Dawley rats, individual animal
[4] = dose response, single subcutaneous dose 100 nmol/kg, male Sprague Dawley rats, individual animal
[5] = male Sprague Dawley rats, single intravenous dose 190 nmol/kg, individual animal
[6] = male, Sprague Dawley, rat, plasma, iv, 190 nmol/kg, single intravenous dose 190 nmol/kg, Mean
[7] = male, Sprague Dawley, rat, plasma, iv, 190 nmol/kg, single intravenous dose 190 nmol/kg, individual animal
[8] = single subcutaneous dose 190 nmol/kg, male Sprague Dawley rats, individual animal

- EC50 (human CRHR1): > 1e+07 pM
- CL/F [1, 2]: 0.175 mL/min/kg and 0.152 mL/min/kg
- T1/2 [1, 2]: 18.6 h and 31.5 h
- Tmax [1, 2]: 6 h
- CL/F [1, 3]: 0.173 mL/min/kg and 0.17 mL/min/kg
- T1/2 [1, 3]: 19.6 h and 20.8 h
- Tmax [1, 3]: 6 h
- CL/F [1, 4]: 0.119 mL/min/kg and 0.124 mL/min/kg
- T1/2 [1, 4]: 17.4 h and 15.7 h
- CL [1, 5]: 0.0673 mL/min/kg and 0.0512 mL/min/kg
- T1/2 [1, 5]: 16.9 h and 18.2 h
- clearance [1, 6]: 0.065 mL/min/kg
- half-life [1, 6]: 17.5 h
- clearance [1, 7]: 0.0765 mL/min/kg
- half-life [1, 7]: 17.4 h
- half-life ([1]; male, Sprague Dawley, rat, plasma, sc, 10 nmol/kg, dose response, single subcutaneous dose 10 nmol/kg, individual animal): 19.9 h
- CL/F ([1]; male, Sprague Dawley, rat, plasma, sc, 10 nmol/kg, dose response, single subcutaneous dose 10 nmol/kg, individual animal, read-out: CL/F (converted)): 0.162 mL/min/kg
- half-life ([1]; male, Sprague Dawley, rat, plasma, sc, 10 nmol/kg, dose response, single subcutaneous dose 10 nmol/kg, mean): 23.3 h
- CL/F ([1]; male, Sprague Dawley, rat, plasma, sc, 10 nmol/kg, dose response, single subcutaneous dose 10 nmol/kg, mean, read-out: CL/F (converted)): 0.163 mL/min/kg
- Tmax ([1]; male, Sprague Dawley, rat, plasma, sc, 10 nmol/kg, dose response, single subcutaneous dose 10 nmol/kg, mean, read-out: Tmax): 18 h
- half-life ([1]; male, Sprague Dawley, rat, plasma, sc, 30 nmol/kg, dose response, single subcutaneous dose 30 nmol/kg, individual animal): 19.2 h
- CL/F ([1]; male, Sprague Dawley, rat, plasma, sc, 30 nmol/kg, dose response, single subcutaneous dose 30 nmol/kg, individual animal, read-out: CL/F (converted)): 0.19 mL/min/kg
- half-life ([1]; male, Sprague Dawley, rat, plasma, sc, 30 nmol/kg, dose response, single subcutaneous dose 30 nmol/kg, mean): 19.9 h
- CL/F ([1]; male, Sprague Dawley, rat, plasma, sc, 30 nmol/kg, dose response, single subcutaneous dose 30 nmol/kg, mean, read-out: CL/F (converted)): 0.178 mL/min/kg
- Tmax ([1]; male, Sprague Dawley, rat, plasma, sc, 30 nmol/kg, dose response, single subcutaneous dose 30 nmol/kg, mean, read-out: Tmax): 18 h
- half-life ([1]; male, Sprague Dawley, rat, plasma, sc, 100 nmol/kg, dose response, single subcutaneous dose 100 nmol/kg, individual animal): 16 h
- CL/F ([1]; male, Sprague Dawley, rat, plasma, sc, 100 nmol/kg, dose response, single subcutaneous dose 100 nmol/kg, individual animal, read-out: CL/F (converted)): 0.133 mL/min/kg
- Tmax ([1]; male, Sprague Dawley, rat, plasma, sc, 100 nmol/kg, dose response, single subcutaneous dose 100 nmol/kg, individual animal, read-out: Tmax): 24 h
- half-life ([1]; male, Sprague Dawley, rat, plasma, sc, 100 nmol/kg, dose response, single subcutaneous dose 100 nmol/kg, mean): 16.4 h
- CL/F ([1]; male, Sprague Dawley, rat, plasma, sc, 100 nmol/kg, dose response, single subcutaneous dose 100 nmol/kg, mean, read-out: CL/F (converted)): 0.126 mL/min/kg
- Tmax ([1]; male, Sprague Dawley, rat, plasma, sc, 100 nmol/kg, dose response, single subcutaneous dose 100 nmol/kg, mean, read-out: Tmax): 24 h
- half-life ([1]; male, Sprague Dawley, rat, plasma, sc, 190 nmol/kg, single subcutaneous dose 190 nmol/kg, individual animal): 14.8 h
- CL/F ([1]; male, Sprague Dawley, rat, plasma, sc, 190 nmol/kg, single subcutaneous dose 190 nmol/kg, individual animal, read-out: CL/F (converted)): 0.136 mL/min/kg
- Tmax ([1]; male, Sprague Dawley, rat, plasma, sc, 190 nmol/kg, single subcutaneous dose 190 nmol/kg, individual animal, read-out: Tmax): 24 h
- half-life ([1]; male, Sprague Dawley, rat, plasma, sc, 190 nmol/kg, single subcutaneous dose 190 nmol/kg, mean): 14.4 h
- CL/F ([1]; male, Sprague Dawley, rat, plasma, sc, 190 nmol/kg, single subcutaneous dose 190 nmol/kg, mean, read-out: CL/F (converted)): 0.137 mL/min/kg
- Tmax ([1]; male, Sprague Dawley, rat, plasma, sc, 190 nmol/kg, single subcutaneous dose 190 nmol/kg, mean, read-out: Tmax): 24 h
- AUC0-inf ([1]; rat, plasma, sc, dose response, single subcutaneous dose 10 nmol/kg, male Sprague Dawley rats, mean, read-out: AUC0-inf): 1.04 µM·h
- Cmax ([1]; rat, plasma, sc, dose response, single subcutaneous dose 10 nmol/kg, male Sprague Dawley rats, mean, read-out: Cmax): 23.2 nM
- AUC0-inf ([1]; rat, plasma, sc, dose response, single subcutaneous dose 30 nmol/kg, male Sprague Dawley rats, mean, read-out: AUC0-inf): 2.84 µM·h
- Cmax ([1]; rat, plasma, sc, dose response, single subcutaneous dose 30 nmol/kg, male Sprague Dawley rats, mean, read-out: Cmax): 60.7 nM
- AUC0-inf ([1]; rat, plasma, sc, dose response, single subcutaneous dose 100 nmol/kg, male Sprague Dawley rats, mean, read-out: AUC0-inf): 13.3 µM·h
- Cmax ([1]; rat, plasma, sc, dose response, single subcutaneous dose 100 nmol/kg, male Sprague Dawley rats, mean, read-out: Cmax): 294 nM
- AUC0-inf ([1]; rat, plasma, sc, single subcutaneous dose 190 nmol/kg, male Sprague Dawley rats, mean, read-out: AUC0-inf): 23.2 µM·h
- Cmax ([1]; rat, plasma, sc, single subcutaneous dose 190 nmol/kg, male Sprague Dawley rats, mean, read-out: Cmax): 508 nM
- AUC0-inf ([1]; rat, plasma, male Sprague Dawley rats, single intravenous dose 190 nmol/kg, Mean, read-out: AUC0-inf): 50 µM·h
- C0 ([1]; rat, plasma, male Sprague Dawley rats, single intravenous dose 190 nmol/kg, Mean, read-out: C0): 2920 nM
- CL/F [1, 8]: 0.147 mL/min/kg and 0.128 mL/min/kg
- T1/2 [1, 8]: 13.9 h and 14.5 h
Substance: {C20 diacid-εLys-AEEA-γGlu}-GSPSIVTS[αMeL]DVPT[Aib][αMeL]LQKILEQERAEKARQQATEAAEILAQV-NH2 [SEQ ID NO: 25]
- AUC0-inf [1, 2]: 1.05 µM·h and 0.972 µM·h and 1.11 µM·h
- Cmax [1, 2]: 20.8 nM and 21.9 nM and 26.8 nM
- AUC0-inf [1, 3]: 2.64 µM·h and 2.91 µM·h and 2.96 µM·h
- Cmax [1, 3]: 55.0 nM and 68.0 nM and 59.1 nM
- AUC0-inf [1, 4]: 12.5 µM·h and 14 µM·h and 13.4 µM·h
- Cmax [1, 4]: 239 nM and 316 nM and 328 nM
- AUC0-inf [1, 5]: 41.3 µM·h and 46.9 µM·h and 61.8 µM·h
- C0 [1, 5]: 1610 nM and 3540 nM and 3610 nM
- AUC0-inf [1, 8]: 23.4 µM·h and 21.6 µM·h and 24.7 µM·h
- Cmax [1, 8]: 466 nM and 475 nM and 582 nM
